The source made the active and inactive calls. The calls are words filed in the database; no cut-off is given here.
Columns and labels:
[1] = Cytotoxicity against human RD cells incubated for 48 hrs by MTT assay; assay type: toxicity, cell-based
[2] = Cytotoxicity against human HEp-2 cells incubated for 48 hrs by MTT assay; assay type: toxicity, cell-based
[3] = test system: Coxsackievirus B3; assay: Antiviral activity against CVB3 infected in HEp-2 cells assessed as inhibition of virus-induced cell death at 100 uM incubated for 48 hrs by MTT assay relative to control; assay type: functional; settings: for inhibition at 100 µM: Enterovirus B, HEp-2, 48 h; for inhibition (INH): 48 h, 100 µM
[4] = test system: Enterovirus; assay: Antiviral activity against EV71 infected in human RD cells assessed as inhibition of virus-induced cell death at 100 uM incubated for 48 hrs by MTT assay relative to control; assay type: functional, 71; settings: for inhibition at 100 µM: Enterovirus, 71, RD
[5] = test system: Coxsackievirus B3; assay: Antiviral activity against CVB3 infected in HEp-2 cells assessed as inhibition of virus-induced cell death at 25 uM incubated for 48 hrs by MTT assay relative to control; assay type: functional; settings: Enterovirus B
[6] = test system: Coxsackievirus B3; assay: Antiviral activity against CVB3 infected in HEp-2 cells assessed as inhibition of virus-induced cell death at 50 uM incubated for 48 hrs by MTT assay relative to control; assay type: functional; settings: Enterovirus B
[7] = test system: Enterovirus; assay: Antiviral activity against EV71 infected in human RD cells assessed as inhibition of virus-induced cell death at 25 uM incubated for 48 hrs by MTT assay relative to control; assay type: functional; settings: Enterovirus, 71, RD
[8] = test system: Enterovirus; assay: Antiviral activity against EV71 infected in human RD cells assessed as inhibition of virus-induced cell death at 50 uM incubated for 48 hrs by MTT assay relative to control; assay type: functional; settings: Enterovirus, 71, RD
[9] = test system: Coxsackievirus B3; assay: Antiviral activity against CVB3 infected in HEp-2 cells assessed as protection from virus-induced cytopathogenicity incubated for 48 hrs by MTT assay; assay type: functional, organism-based; settings: Enterovirus B, HEp-2, 48 h
[10] = Selectivity index, ratio of CC50 for cytotoxicity against HEp-2 cells to EC50 for antiviral activity against CVB3 infected in HEp-2 cells; assay type: toxicity, cell-based; settings: human, read-out: Ratio CC50/EC50
[11] = test system: Coxsackievirus B3; assay: Antiviral activity against CVB3 infected in HEp-2 cells assessed as inhibition of virus-induced cell death at 25 to 100 uM incubated for 48 hrs by MTT assay; assay type: functional, organism-based; settings: dose 25-100 µM
[12] = test system: Enterovirus; assay: Antiviral activity against EV71 infected in human RD cells assessed as protection from virus-induced cytopathogenicity incubated for 48 hrs by MTT assay; assay type: functional, organism-based; settings: Enterovirus, 71, RD
[13] = Selectivity index, ratio of CC50 for cytotoxicity against human RD cells to EC50 for antiviral activity against EV71 infected in human RD cells; assay type: toxicity, cell-based; settings: read-out: Ratio CC50/EC50
[14] = test system: Enterovirus; assay: Antiviral activity against EV71 infected in human RD cells assessed as inhibition of virus-induced cell death at 25 to 100 uM incubated for 48 hrs by MTT assay; assay type: functional, organism-based; settings: 71, dose 25-100 µM

Structure (SMILES) | CC50 at 48 h [1] | CC50 at 48 h [2] | inhibition at 100 µM [3] | inhibition at 100 µM [4] | inhibition at 25 µM [5] | inhibition at 50 µM [6] | inhibition at 25 µM [7] | inhibition at 50 µM [8] | EC50 [9] | selectivity ratio [10] | antiviral activity call (active/inactive) [11] | inhibition (INH) [3] | Imax [4] | EC50 [12] | selectivity ratio [13] | inhibition [14]
CS(=O)(=O)CCNC(=O)C12CCC(=O)N1c1ccc(Cl)cc1C(=O)N2 (stereo unspecified) | 243 µM | 202 µM | 28.5% | 22.8% | 12.2% | 24.3% | 33.8% | 28% | – | – | – | – | – | – | – | –
COc1cc(CNC(=O)C23CCC(=O)N2c2ccccc2C(=O)N3)ccc1O (stereo unspecified) | 264 µM | 238 µM | 82.4% | 91.3% | 42.2% | 56.6% | 64.3% | 85.9% | 35.8 µM | 6.6 | Active | 82.4% | 91.33% | – | – | –
CC(NC(=O)C12CCC(=O)N1c1ccccc1C(=O)N2C)c1ccccc1 (stereo unspecified) | 234 µM | 223 µM | – | – | – | – | – | – | – | – | – | – | – | – | – | –
COC(=O)C(CCSC)NC(=O)C12CCC(=O)N1c1ccccc1C(=O)N2C (stereo unspecified) | 252 µM | 200 µM | 27.3% | 1.3% | 20.8% | 20.2% | 3.2% | 6.2% | – | 3.6 | – | – | – | – | – | –
COC(=O)C(CCSC)NC(=O)C12CCC(=O)N1c1ccccc1C(=O)N2 (stereo unspecified) | 245 µM | 212 µM | 27.9% | 4.8% | 13.3% | 21.7% | 6.1% | 5% | – | – | – | – | – | – | – | –
COc1cc(CNC(=O)C23CCC(=O)N2c2ccccc2C(=O)N3C)ccc1O (stereo unspecified) | 243 µM | 251 µM | – | – | – | – | – | – | – | – | Active | – | – | – | – | –
O=C1NC2(C(=O)NCCc3c[nH]c4ccccc34)CCC(=O)N2c2ccccc21 (stereo unspecified) | 208 µM | 185 µM | 62.1% | 67% | 28.9% | 44.4% | 64.1% | 73.1% | 65.8 µM | 2.8 | Active | – | – | 18.6 µM | 11.2 | Active
CSCCNC(=O)C12CCC(=O)N1c1ccccc1C(=O)N2C (stereo unspecified) | 278 µM | 238 µM | 32.1% | 7.9% | 20.7% | 24.4% | 6.6% | 13.7% | – | – | – | – | – | – | – | –
COc1cc(CNC(=O)C23CCC(=O)N2c2ccc(Cl)cc2C(=O)N3)ccc1O (stereo unspecified) | 160 µM | 188 µM | 87.3% | 97.5% | 48.9% | 30.7% | 67.5% | 81.3% | 17.4 µM | 10.8 | Active | 92.3% | 97.48% | 27.2 µM | 5.9 | Active
CSCCNC(=O)C12CCC(=O)N1c1ccc(Cl)cc1C(=O)N2 (stereo unspecified) | 269 µM | 315 µM | 46.7% | 26.2% | 20.3% | 30.1% | 34.9% | 28.8% | – | – | – | – | – | 44.5 µM | 6 | Active
COC(=O)C(Cc1c[nH]c2ccccc12)NC(=O)C12CCC(=O)N1c1ccc(Cl)cc1C(=O)N2 (stereo unspecified) | 158 µM | 171 µM | 63.7% | 74% | 36.6% | 45% | 60.6% | 75.3% | 55.6 µM | 3.1 | Active | – | – | 24.8 µM | 6.4 | Active

Reference: ChEMBL document CHEMBL6114999, “Natural pyrrolo[1,2-a]quinazolinone derivatives: Design, synthesis, characterization, and bio-evaluation as novel antiviral agents” (Eur J Med Chem, 2025)
